For data set [1], the target named is recombinant BACE1 protein (Homo sapiens, UniProt P56817). The data set is described as follows: Biochemical FRET based assay. The conditions noted are these: recombinant BACE1 1 μg/ml, 120 minutes at room temperature, pH 5.0; read-out: Biochemical FRET based assay pIC50 (converted). The method in brief:
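Recombinant BACE1 (1 μg/ml final) was incubated 120 minutes at room temperature with […] Mca/Dnp-labelled 13-mer APP Swedish-mutant peptide in 40 mM citrate pH 5.0, 0.04% PEG, 4% DMSO, with or without compound. Cleavage was measured as fluorescence (ex 320/em 405 nm), given as RFU difference between T120 and T0.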

A further data set deals with Abeta total. The data set is described as follows: Cellular αLisa assay in SKNBE2 cells, Abeta total. The data set is classed as cell-based, human. The conditions noted are these: incubated for 18 hours; for IC50: Homo sapiens, SKNBE2, 18 h, read-out: Cellular αLisa assay in SKNBE2 cells Abetatotal pIC50 (converted). A digest of the protocol: (§1)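 Human neuroblastoma SKNBE2 cells expressing wild-type hAPP695 were incubated with compound for 18 hours. Secreted Abeta total and Abeta 1-42 in medium were quantified by sandwich αLisa: biotinylated AbN/25 on streptavidin donor beads with Ab4G8 (total) or cAb42/26 (1-42) acceptor beads. Light emission read after 1 hour (ex 650 nm, em 615 nm).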

A further data set addresses T1, P-gp (Homo sapiens, UniProt P08183).
T1 construct: expressed in transfected cells; host or cells: LLC-PK1 cells stably transduced with MDR1 (LLC-MDR1)
Put plainly: Transepithelial transport of test compounds through LLC-MDR1 monolayers. Conditions: for efflux ratio at 120 min, 1 μM / Papp A→B at 120 min, 1 μM / Papp B→A at 120 min, 1 μM: pig, LLC-PK1; for efflux ratio at 120 min, 1 μM: ratio of B to A and A to B permeation rates, read-out: BA/AB; for Papp A→B at 120 min, 1 μM: read-out: A to B (Apparent Permeability, Papp); for Papp B→A at 120 min, 1 μM: read-out: B to A (Apparent Permeability, Papp). Format: in vitro ADME. As for the experimental part: Brief Assay Description for the Measurement of Transepithelial Transport of Test Compounds Through LLC-MDR1 Monolayers
The purpose of this assay was to assess both the in vitro passive permeability of test compounds and their ability to be transported substrates of P-gp using LLC-PK1 cells stably transduced with MDR1 in a trans-well system. The positive control for transport was ^3H-digoxin (30 nM) and the positive control inhibitor was GF120918 (5 μM). The marker compound for low permeability was ^14C-Mannitol (1 μM). The test compound concentration was 1 μM.
The integrity of the cellular monolayer was assessed in each incubation well through the inclusion of the fluorescent, low permeability marker compound, Fluorescein.
In detail, LLC-MDR1 cells were seeded on 24-well cell culture inserts (Millicell®-PCF, 0.4 μm, 13 mm diameter, 0.7 cm^2) at 400,000 cells/cm^2. Cell culture medium consisted of Medium 199 supplemented with 10% Foetal Bovine Serum (FBS) and 100 U/ml Penicillin/streptomycin and was replaced the day after seeding and the day before the experiment. The transport experiment was performed 5 days after seeding. On the day of the experiment, solutions of the test compounds were applied to the apical or basolateral side of the monolayers to assess transport in the A to B and B to A directions, respectively. The medium used in the assay was (OPTI-MEM (1×) (GIBCO) with 1 w/v % Bovine Serum Albumin. Inserts were incubated at 37° C. in a humidified incubator containing 5% CO2. Samples from the acceptor and donor compartments were collected after an incubation time of 120 min, to assess the permeability and to allow estimation of the test compound recovery during the experiment, respectively. Transport experiments were performed in triplicate. Absolute test compound concentrations were measured using LC-MS/MS and quantified via a calibration curve.

The next data set relates to Abeta 1-42. Put plainly: Cellular αLisa assay in SKNBE2 cells, Abeta 1-42. The conditions noted are these: incubated for 18 hours; for IC50: Homo sapiens, SKNBE2, 18 h, read-out: Cellular αLisa assay in SKNBE2 cells Abeta 42 pIC50 (converted). The data set is classed as cell-based, human. A digest of the protocol: as §1

T1 sequence (P08183 whole entry): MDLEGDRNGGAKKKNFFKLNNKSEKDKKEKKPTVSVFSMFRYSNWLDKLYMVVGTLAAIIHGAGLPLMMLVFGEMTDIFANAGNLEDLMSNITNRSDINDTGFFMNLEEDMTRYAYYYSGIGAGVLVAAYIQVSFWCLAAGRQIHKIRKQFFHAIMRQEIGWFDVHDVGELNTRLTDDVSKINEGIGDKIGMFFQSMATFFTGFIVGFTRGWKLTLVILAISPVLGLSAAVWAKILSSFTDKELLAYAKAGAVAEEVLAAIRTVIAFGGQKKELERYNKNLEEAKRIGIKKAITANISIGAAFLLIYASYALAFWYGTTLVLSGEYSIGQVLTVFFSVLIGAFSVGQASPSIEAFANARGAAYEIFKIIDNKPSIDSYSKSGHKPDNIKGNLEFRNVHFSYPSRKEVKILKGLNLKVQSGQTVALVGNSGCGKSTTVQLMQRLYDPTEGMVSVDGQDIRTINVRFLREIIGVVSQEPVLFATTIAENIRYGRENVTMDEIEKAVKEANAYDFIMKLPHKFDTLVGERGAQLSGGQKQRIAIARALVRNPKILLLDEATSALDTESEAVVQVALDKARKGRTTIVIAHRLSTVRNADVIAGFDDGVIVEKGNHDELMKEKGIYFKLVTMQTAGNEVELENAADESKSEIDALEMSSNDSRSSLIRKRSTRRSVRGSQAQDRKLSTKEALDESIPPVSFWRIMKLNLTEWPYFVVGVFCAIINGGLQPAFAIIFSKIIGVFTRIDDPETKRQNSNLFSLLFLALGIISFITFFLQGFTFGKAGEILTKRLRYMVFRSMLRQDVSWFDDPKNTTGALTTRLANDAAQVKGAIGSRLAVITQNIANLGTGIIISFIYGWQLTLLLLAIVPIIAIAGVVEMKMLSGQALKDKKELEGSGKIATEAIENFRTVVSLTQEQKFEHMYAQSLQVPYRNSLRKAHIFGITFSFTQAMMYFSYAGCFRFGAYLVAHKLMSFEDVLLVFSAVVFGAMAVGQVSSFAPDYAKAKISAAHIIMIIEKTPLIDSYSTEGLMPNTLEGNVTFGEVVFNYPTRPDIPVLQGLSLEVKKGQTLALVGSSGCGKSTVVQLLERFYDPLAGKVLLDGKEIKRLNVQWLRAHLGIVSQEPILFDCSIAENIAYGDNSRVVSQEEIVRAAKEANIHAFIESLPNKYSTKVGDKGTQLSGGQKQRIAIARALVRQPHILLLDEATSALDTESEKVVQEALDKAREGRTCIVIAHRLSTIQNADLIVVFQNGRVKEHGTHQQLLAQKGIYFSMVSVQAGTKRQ
Chain of recombinant BACE1 protein (P56817 46-501): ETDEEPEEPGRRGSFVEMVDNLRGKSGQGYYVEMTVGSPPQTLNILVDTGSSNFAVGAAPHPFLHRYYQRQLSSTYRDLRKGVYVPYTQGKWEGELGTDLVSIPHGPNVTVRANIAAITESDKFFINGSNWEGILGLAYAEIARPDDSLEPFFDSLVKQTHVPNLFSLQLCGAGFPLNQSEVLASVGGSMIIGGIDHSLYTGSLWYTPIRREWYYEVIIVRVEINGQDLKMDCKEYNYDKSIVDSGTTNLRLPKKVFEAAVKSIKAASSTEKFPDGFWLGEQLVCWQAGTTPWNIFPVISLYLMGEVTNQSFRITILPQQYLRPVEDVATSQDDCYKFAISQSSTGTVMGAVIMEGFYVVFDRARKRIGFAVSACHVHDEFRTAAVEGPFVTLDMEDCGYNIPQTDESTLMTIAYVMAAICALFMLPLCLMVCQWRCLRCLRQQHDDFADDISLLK

Take `COc1cncc(-c2cccc(C3(C)N=C(N)COC3(F)C(F)(F)F)c2)c1` (single isomer, unassigned) [Compound 118]: the IC50 in data set [1] is 191 nM. In the data set with Abeta total, the “Cellular αLisa assay in SKNBE2 cells Abetatotal pIC50” value is reported as 7.18. For the same compound, the efflux ratio at 120 min, 1 μM on P-gp (LLC-MDR1 monolayers) is 1.3. Also, on P-gp, the Papp A→B – broadly, how fast a substance crosses the layer from the apical side – at 120 min, 1 μM came out at 12 ×10⁻⁶ cm/s and the apparent permeability from basolateral to apical (Papp B→A) – broadly, how fast a substance crosses the layer from the basolateral side – at 120 min, 1 μM worked out at 15 ×10⁻⁶ cm/s. In the data set with Abeta 1-42, the “Cellular αLisa assay in SKNBE2 cells Abeta 42 pIC50” value came out at 7.23.

In the case of `COc1cncc(-c2cccc(C3(C)N=C(N)COC3F)c2)c1` (single isomer, unassigned) [Compound 93], the IC50 in data set [1] is 468 nM. The “Cellular αLisa assay in SKNBE2 cells Abetatotal pIC50” value in the data set with Abeta total stood at 6.97. Besides, the efflux ratio at 120 min, 1 μM on P-gp (LLC-MDR1 monolayers) is 4.6. On P-gp, the Papp A→B at 120 min, 1 μM is 7.4 ×10⁻⁶ cm/s and the basolateral-to-apical permeability (Papp B→A) at 120 min, 1 μM was 34.3 ×10⁻⁶ cm/s. Also, the “Cellular αLisa assay in SKNBE2 cells Abeta 42 pIC50” value in the data set with Abeta 1-42 came out at 6.98.

On to `COc1cnc(C(=O)Nc2ccc(F)c([C@]3(C)COCC(N)=N3)c2)cn1` [Compound 39], for which, in the data set with Abeta total, the “Cellular αLisa assay in SKNBE2 cells Abetatotal pIC50” value amounted to 8.38. Also, the “A to B (Apparent Permeability, Papp)” value on P-gp (LLC-MDR1 monolayers, 1 μM test compound, 120 minutes, apical to basolateral, absence of GF120918) is 3.7 ×10⁻⁶ cm/s. Also, the “B to A (Apparent Permeability, Papp)” value at P-gp (LLC-MDR1 monolayers, 1 μM test compound, 120 minutes, basolateral to apical) was 34.2 ×10⁻⁶ cm/s. The “Cellular αLisa assay in SKNBE2 cells Abeta 42 pIC50” value in the data set with Abeta 1-42 is 8.27.

Take `CC1(c2cccc(NC(=O)c3ccncn3)c2)N=C(N)COC1(F)C(F)(F)F` (single isomer, unassigned) [Compound 189]: the melting point – broadly, the temperature of the solid-liquid transition – was 189.29 °C. Moreover, in data set [1], the IC50 is greater than 30200 nM. For the same compound, in the data set with Abeta total, the “Cellular αLisa assay in SKNBE2 cells Abetatotal pIC50” value is on record as less than 5. The “Cellular αLisa assay in SKNBE2 cells Abeta 42 pIC50” value in the data set with Abeta 1-42 was less than 5.

Compound `COc1cncc(-c2ccc(F)c(C3(C)N=C(N)COC3C(F)(F)F)c2)c1` (centres unmarked) [Compound 105] came in with a melting point of 196.9 °C. In addition, in data set [1], the IC50 is 1550 nM. Besides, the IC50 in the data set on Abeta total is 224 nM. Moreover, the IC50 in the data set with Abeta 1-42 is 200 nM.

In the case of `CC1(c2cc(NC(=O)c3ncc(Cl)cc3F)ccc2F)N=C(N)COC1F` (single isomer, unassigned) [Compound 130], the melting point is 116.4 °C. In addition, in data set [1], the IC50 is 1910 nM. Moreover, the “Cellular αLisa assay in SKNBE2 cells Abetatotal pIC50” value in the data set on Abeta total was 6.48. The “Cellular αLisa assay in SKNBE2 cells Abeta 42 pIC50” value in the data set with Abeta 1-42 turned out to be 6.47.

In the case of `CC1(c2cc(-c3cncnc3)ccc2F)N=C(N)COC1F` (single isomer, unassigned) [Compound 75], the melting point is 227.7 °C. The IC50 in data set [1] is 9770 nM. In the data set on Abeta total, the “Cellular αLisa assay in SKNBE2 cells Abetatotal pIC50” value is 5.46. In addition, in the data set on Abeta 1-42, the “Cellular αLisa assay in SKNBE2 cells Abeta 42 pIC50” value came out at 5.46.

As to `C[C@]1(c2cc(-c3cncc(C#N)c3)c(F)cc2F)N=C(N)CO[C@@H]1C(F)(F)F` [Compound 317], the melting point came out at 177.94 °C. Also, in data set [1], the IC50 is 2040 nM. The IC50 in the data set on Abeta total was 468 nM. Also, in the data set with Abeta 1-42, the IC50 was 550 nM.

`C[C@]1(c2cc(-c3cncnc3)c(F)cc2F)COC2(CC2)C(N)=N1` [Compound 149] had a melting point of 187.4 °C. In data set [1], the IC50 was greater than 30200 nM. For the same compound, the IC50 with Abeta total was 8910 nM. Also, the IC50 in the data set with Abeta 1-42 was 8710 nM.

In turn, `COc1cnc(C(=O)Nc2ccc(F)c([C@]3(C4CC4)COCC(N)=N3)c2)cn1` [Compound 299] registered a melting point of 196.4 °C. Further, the IC50 in data set [1] is 170 nM. For the same compound, the IC50 in the data set with Abeta total is 21.4 nM. For the same compound, in the data set with Abeta 1-42, the IC50 was 24 nM.

In turn, `COc1cncc(-c2cccc(C3(C(F)(F)F)COCC(N)=N3)c2)c1` (racemic) [Compound 152, rac-5-[3-(5-methoxypyridin-3-yl)phenyl]-5-(trifluoromethyl)-5,6-dihydro-2H-1,4-oxazin-3-amine] yielded a melting point of 202.5 °C. In data set [1], the IC50 was 3890 nM. Further, the IC50 in the data set with Abeta total is 3160 nM. Besides, the IC50 with Abeta 1-42 was 3160 nM.

In turn, `C[C@]1(c2cc(-c3cncnc3)c(F)cc2F)N=C(N)CO[C@]1(F)C(F)(F)F` [Compound 210] showed a melting point greater than 300 °C. Besides, in data set [1], the IC50 was 12000 nM. The IC50 in the data set on Abeta total is greater than 10000 nM. The IC50 in the data set with Abeta 1-42 was greater than 10000 nM.

In turn, `CC1(c2cccc(NC(=O)c3ncccc3F)c2)COCC(N)=N1` (racemic) [Compound 6, rac-N-[3-(5-amino-3-methyl-3,6-dihydro-2H-1,4-oxazin-3-yl)phenyl]-3-fluoropyridine-2-carboxamide] came in with a melting point of 155.6 °C. For the same compound, the IC50 in data set [1] is 5130 nM. Also, the IC50 with Abeta total was 457 nM. Moreover, in the data set with Abeta 1-42, the IC50 is 513 nM.

With `CC1(c2cccc(NC(=O)c3ccc(Cl)cn3)c2)N=C(N)COC1(F)C(F)(F)F` (single isomer, unassigned) [Compound 113], the “Cellular αLisa assay in SKNBE2 cells Abetatotal pIC50” value in the data set on Abeta total is given as 7.52. Moreover, at P-gp, the apical-to-basolateral permeability (Papp A→B) at 120 min, 1 μM is 9 ×10⁻⁶ cm/s and the Papp B→A at 120 min, 1 μM came out at 9.8 ×10⁻⁶ cm/s. In addition, the “Cellular αLisa assay in SKNBE2 cells Abeta 42 pIC50” value in the data set on Abeta 1-42 was determined as 7.53.

Compound `CC1(c2cccc(-c3cc(Cl)cc(Cl)c3)c2)COCC(N)=N1` (racemic) [Compound 2, rac-5-(3′,5′-dichlorobiphenyl-3-yl)-5-methyl-5,6-dihydro-2H-1,4-oxazin-3-amine] gave a melting point of 197 °C. Also, in data set [1], the IC50 was 1910 nM. For the same compound, the IC50 with Abeta total was 617 nM. Further, the IC50 in the data set with Abeta 1-42 was 724 nM.

In the case of `C[C@]1(c2cc(-c3cncnc3)c(F)cc2F)N=C(N)CO[C@H]1C(F)(F)F` [Compound 254], the melting point came to 101.3 °C. For the same compound, the IC50 in data set [1] is 851 nM. Besides, in the data set on Abeta total, the IC50 was 316 nM. In addition, in the data set with Abeta 1-42, the IC50 was 347 nM.

The compound `CC1(c2cc(NC(=O)c3ncc(Cl)cc3Cl)ccc2F)N=C(N)COC1F` (single isomer, unassigned) [Compound 128] registered a melting point of 93.3 °C. In data set [1], the IC50 was 5750 nM. In addition, the “Cellular αLisa assay in SKNBE2 cells Abetatotal pIC50” value in the data set on Abeta total is recorded as 6.02. The “Cellular αLisa assay in SKNBE2 cells Abeta 42 pIC50” value in the data set on Abeta 1-42 was 6.0.

The compound `C[C@]1(c2cc(-c3cncnc3)c(F)cc2F)N=C(N)CO[C@@H]1F` (single isomer, unassigned) [Compound 148, (R*,R*)-5-(2,4-difluoro-5-pyrimidin-5-ylphenyl)-6-fluoro-5-methyl-5,6-dihydro-2H-1,4-oxazin-3-amine] showed a melting point of 186.2 °C. Further, in data set [1], the IC50 is greater than 30200 nM. Moreover, in the data set with Abeta total, the IC50 is greater than 10000 nM. For the same compound, the IC50 with Abeta 1-42 is greater than 10000 nM.

For `C[C@]1(c2cc(NC(=O)c3ncc(Cl)cc3Cl)ccc2F)N=C(N)CO[C@]1(F)C(F)(F)F` [Compound 185], the melting point is 165.14 °C. The IC50 in data set [1] was 166 nM. In addition, the IC50 in the data set on Abeta total was 195 nM. Further, the IC50 in the data set with Abeta 1-42 is 200 nM.

`CC1(c2cc(-c3cncnc3)c(F)cc2F)N=C(N)COC1F` (centres unmarked) [Compound 84]: the melting point was 195.3 °C. In data set [1], the IC50 is 22900 nM. For the same compound, the IC50 in the data set on Abeta total is 4470 nM. For the same compound, the IC50 with Abeta 1-42 was 3890 nM.

Turning to `CCC1(c2cc(NC(=O)c3cnc(OC)cn3)ccc2F)N=C(N)COC1(F)C(F)(F)F` (centres unmarked) [Compound 301], the melting point is 196.44 °C. The IC50 in data set [1] was 81.3 nM. Besides, the “Cellular αLisa assay in SKNBE2 cells Abetatotal pIC50” value in the data set on Abeta total is given as 7.17. For the same compound, in the data set with Abeta 1-42, the “Cellular αLisa assay in SKNBE2 cells Abeta 42 pIC50” value is recorded as 7.14.

`C[C@]1(c2cc(NC(=O)c3ncc(Cl)cc3Cl)ccc2F)N=C(N)CO[C@@]1(F)C(F)(F)F` [Compound 181] had a melting point of 200.16 °C. The IC50 in data set [1] was 26.3 nM. In addition, the IC50 in the data set with Abeta total was 13.5 nM. In addition, the IC50 in the data set with Abeta 1-42 is 13.5 nM.
